# Measurements published in patent US8771983B2, “Method and kit for expressing protein under regulation of the expression from repeated sequence formed by gene amplification, and transformant” (National University of Corporation Hiroshima University, priority 2004, dated 2014).
# Tested on: expression of d2EGFP in human colon cancer cells COLO 320DM cells
# Assay: Level of expression of d2EGFP after treatment of cells with 5-aza-2′-deoxycytidine and/or Trichostatin A (Example 6)
# Format: cell-based
# Conditions: for accumulated fluorescence intensity / average fluorescence intensity: 3 days
# Protocol: Fluorescence intensity of these cells were measured by using a cell sorter. The measurement was carried out by sorting 20,000 cells by setting living cells at a gate. The cell sorter used was made by Becton Dickinson, and operated under conditions as described in the manual attached thereto.
# In this method for detecting the fluorescence intensity, detection limit was 1, and all fluorescence intensities of 1 or less would be detected as 1. In view of this, a product of a ratio (cell %) of cells of fluorescence intensities of 2 or more in all living cells (10,000 cells) and an average of the fluorescence intensities of the cells having fluorescence intensities of 2 or more was calculated out for each experimental plot. This product is referred to as “accumulated fluorescence intensity” hereinafter and in later Examples and shown in boxed letter in the figures.
# A mixture of a plasmid (pSFVdhfr/d2EGFP) and the plasmid DNA having the Aves-derived HS4 insulator sequence was transfected to human colon cancer cells COLO 320DM cells by lipofection. The plasmid (pSFVdhfr/d2EGFP) was a plasmid having (a) IR and MAR derived from human DHFR gene locus, (b) Blasticidin tolerance gene, and (c) d2EGFP gene that was under control of TRE-promoter (Tetracycline inducing promoter). The plasmid DNA having the Aves-derived HS4 insulator sequence was identical with the one described in Example 2. From 2 days later since the gene transfection, the cells were selected with 5 μg/ml of Blasticidin (Funakoshi Corp.). After 3 to 4 weeks, many colonies of transformed cells were obtained.
# Into a culture solution of the transformed cells, of 1 μM or 3 μM of 5-aza-2′ deoxycytidine (hereinafter referred to as “5-aza” where appropriate; Sigma) was added. Thereby, the cells were treated with 5-aza for 3 days. For comparison purposes, 20 nM of Trichostatin A (hereinafter referred to as “TSA” where appropriate; histone deacetylation inhibitor, Sigma), which is known as a material for increasing gene expression from the repeated sequence, was added to some culture solutions of the transformed cells and analyzed.
smiles,measurement,setting,value
"Nc1ncn([C@H]2C[C@H](O)[C@@H](CO)O2)c(=O)n1 [5-aza, 5-aza-2′-deoxycytidine]",accumulated fluorescence intensity,1 μM of 5-aza,895
same,average fluorescence intensity,1 μM of 5-aza,9.48
same,accumulated fluorescence intensity,3 μM of 5-aza,1040
same,average fluorescence intensity,3 μM of 5-aza,10.93
same,fluorescence intensity of the cells after treatment versus before treatment,"fluorescence microscopic images, 1 μM of 5-aza",higher
